The compound `Cc1c(C)c2c(c(C)c1N)CC(C)(CN1CCC(NC(c3ccc(F)cc3)c3ccc(F)cc3)CC1)O2` (stereo not given) returned a melting point of 133 to 134 °C.

`COc1cc(CNC(=O)c2ccc3n2Cc2ccccc2N(C(=O)CSc2ccc(Br)cc2)C3)ccc1O`: the melting point was found to be 168 °C.

`Cc1cccc(N2CCN(CCc3c(C)nc4ccc(C)cn4c3=O)CC2)c1` showed a melting point of 115 to 116 °C.

`O[C@@H](COCc1ccccc1)[C@H](OCc1ccccc1)[C@@H](OCc1ccccc1)[C@@H](O)COCc1ccccc1`: the melting point lay within 52.5 to 53 °C.

Consider `O=C(NNc1nc2ccccc2n2cccc12)c1cc2ccccc2[nH]1`, for which the melting point was found to be 186 °C.

`Cn1c(=O)oc2cc(C(=O)CCN3CCN(c4ccc(F)cc4)CC3)ccc21` came in with a melting point of 149 °C.

On to `COC(=O)n1cc(Cl)c(-c2cc(Cl)cc(Cl)c2)n1`, for which the melting point amounted to 144 °C.

`COC(=O)c1nc(N)sc1CCC(C)C` gave a melting point of 108 to 110 °C.

`CC(Cc1ccc(OCc2ccncc2)cc1)NCC(O)c1cccc(C(F)(F)F)c1` (stereo not given) registered a melting point of 83 to 90 °C.

As for `O=c1c2c(Cl)cc(Cl)cc2n(Cc2ccccc2)c(=O)n1Cc1cccc(F)c1`, the melting point was 112 to 116 °C.

Take `CCN(CC)C(=O)Nc1ccc(S(=O)(=O)N2C(=O)C(N)(c3ccccc3Cl)c3cc(Cl)ccc32)cc1` (stereo not given): the melting point fell in the range of 195 to 196 °C.

Compound `Cc1ccc(C)c(-c2nn(C(C)(C)C(=O)N(C)C)cc2C)c1` registered a melting point of 93 to 95 °C.

In the case of `C[C@@H]1CN(c2c(F)cc3c(=O)c(C(=O)O)cn(C4CC4)c3c2F)C[C@H]1N` (relative stereo), the melting point was in the range of 257 to 260 °C.

`CC(CO)(CCCCN1C(=O)c2ccccc2C1=O)c1ccccc1` (stereo not given) displayed a melting point of 149 to 150 °C.

In turn, `OCCCc1cnoc1-c1ccc(Br)cc1` yielded a melting point of 72 to 73 °C.

Take `COc1ccc2c(c1)C(=O)OC2C(Cl)(Cl)Cl` (stereo not given): the melting point fell in the range of 134 to 136 °C.

As for `CC(C)c1ccc(C2COc3cc(O)c(O)cc3C2)cc1` (stereo not given), the melting point is 129 to 131 °C.

In turn, `CSc1cc(C)nc(SC)c1NC(=O)CN1CCN(CCCSc2nc3ccccc3o2)CC1` registered a melting point of 160 to 161 °C.

Compound `O=C(O)c1c[nH]c2c1C(=O)CCC2` displayed a melting point of 269 to 270 °C.

The compound `O=C(Oc1ccccc1)N1CCC2(CC1)SC(c1cccc(F)c1)c1ccccc12` (stereo not given) had a melting point of 134 to 142 °C.

`CS(=O)(=O)N1CCC(C2c3ccccc3C=Cc3ccccc32)CC1` gave a melting point of 260 to 268 °C.

The compound `CS(=O)(=O)NC(=O)N[C@H]1CCN(c2ccc3c(NC(=O)CC4CCCCC4)c(Cl)ccc3n2)C1` gave a melting point of 303 to 307 °C.

The compound `CN(SC(Cl)(Cl)Cl)C(=O)ON=C1SCC(=O)NC1(C)C` registered a melting point of 189 to 190 °C.

Turning to `COc1cc(COc2nn(-c3ccccc3)cc2CC2SC(=O)N(C)C2=O)ccc1OCc1nc(-c2ccco2)oc1C` (stereo not given), the melting point lay in the range of 111 to 112 °C.

Compound `CC(=O)OCC1COc2c(ccc(F)c2F)N1` (stereo not given) gave a melting point of 73 to 74 °C.

With `COC(=O)CN(c1ccc(OC)cc1OC)S(N)(=O)=O`, the melting point fell in the range of 100 to 103 °C.

Compound `Cc1ncc2c(c1OCC(=O)O)COC2(C)c1ccc(Cl)cc1` (stereo not given) yielded a melting point of 184 °C.

The compound `COC12CC(CCCO)CN(C)C1Cc1c[nH]c3cccc2c13` (stereo not given) came in with a melting point of 190 to 195 °C.

`NCC#CC1(Cl)C=CC=CC1C(=O)c1ccccc1Cl` (stereo not given) displayed a melting point of 81 to 82 °C.

`O=C(Nc1ccc(-n2nc(C3CC3)cc2C2CC2)cc1)c1c(F)cccc1F` showed a melting point of 158 to 163 °C.

Consider `O=C(c1ccncc1)[N+]1([O-])CCC(=C2c3ccccc3CCn3ccnc32)CC1` (stereo not given), for which the melting point was 155 to 159 °C.

Take `CC(C)(C)C1Cc2cc(N3C[C@H](CO)OC3=O)ccc2N1C(=O)OCc1ccccc1` (stereo not given in full): the melting point lay within 141 to 149 °C.

`CC(C)(CO)NC(=O)c1ccccc1-c1ccccc1` registered a melting point of 38.5 to 40.5 °C.

Regarding `Nc1sc(-c2cccs2)c(CN(C2CCCCC2)C2CCCCC2)c1C(=O)c1ccc(Cl)cc1`, the melting point was 197 to 199 °C.

Take `O=C1C(Cc2ccccc2)C(C(F)(F)F)Nc2ccccc2N1Cc1ccccc1` (stereo not given): the melting point is 150 to 151 °C.

In turn, `CCOc1nc(NCc2ccncc2)nc(Nc2ccc3cc[nH]c3c2)n1` displayed a melting point of 198 to 200 °C.

`CS(=O)(=O)c1ccc(-c2nc(C(F)(F)F)nc(NN)c2-c2ccccc2)cc1` returned a melting point of 272 to 275 °C.

For `N#CSc1nc(Cl)ncc1Br`, the melting point was 166 to 170 °C.

In the case of `CN(c1cccc2cc(C3=NCC(CC(C)(C)O)S3)[nH]c12)S(=O)(=O)c1cccs1` (stereo not given), the melting point is 156 to 158 °C.

Turning to `O=C(O)c1c[nH]c2c(OCC3CN(Cc4ccccc4)CCN3Cc3ccccc3)c(F)c(F)cc2c1=O` (stereo not given), the melting point fell in the range of 158 to 159 °C.

`CCC(C)n1nc(C)n(-c2ccc(N3CCCN(C(=O)OC(C)(C)C)CC3)cc2)c1=O` (stereo not given) registered a melting point of 119 to 120 °C.

With `CN1CCc2cc(O)c(O)c(Sc3ccsc3)c2CC1`, the melting point fell in the range of 189 to 191 °C.

`O=C(O)C1=Cc2cc(Cl)c(Oc3ccc(Cl)cc3Cl)cc2OC1C(F)(F)F` (stereo not given): the melting point is 233 to 234 °C.

`OCCCCc1cc(-c2ccc(C(F)(F)F)cc2)no1` gave a melting point of 68 to 69 °C.

Regarding `CCCCCCCCCCCCCCCCCCOc1cc(OCCCCC(=O)OC)cc(C(=O)O)c1`, the melting point lay in the range of 68 to 70 °C.

Regarding `CN1CCN(CCn2c3ccccc3c(=NN=C3NCCS3)c3ccccc32)CC1`, the melting point was 204 to 205 °C.

As to `O=C(Nc1ccc(-n2nc(C(F)(F)F)cc2C(F)(F)F)cc1)C1CC=CCC1` (stereo not given), the melting point fell in the range of 177 to 178 °C.

As to `Cc1cnc(C2=NC(C)(C(C)C)C(=O)N2)c(C(=O)C(=O)N(C)C)c1` (stereo not given), the melting point is 180 to 182 °C.

The compound `CCc1c(-c2ccc(O)cc2)c2ccc3ccc(COCCN4CCCCC4)c1n32` showed a melting point of 68 to 75 °C.

In turn, `CCOCc1nc2c(N)nc3cc(-c4ccccc4)cnc3c2n1CC(C)(C)F` yielded a melting point of 173 to 174 °C.

The compound `CCNC(=O)Cc1ccc(C(=O)c2ccc(Cl)cc2)n1C` yielded a melting point of 187 to 188 °C.

`NCCCP(=O)(O)C1CCCCC1` yielded a melting point of 202 to 203 °C.

`CN(C1=CC(=O)c2nccnc2C1=O)c1ccccc1` showed a melting point of 207 to 208 °C.

The compound `O=C(NC(Cc1ccc(OCc2ccoc2)cc1)C(=O)O)c1cn2cc(-c3ccc(Cl)cc3)ccc2n1` (stereo not given) displayed a melting point of 262 °C.

`Cc1ccc(COc2cccc(/C=C/c3ccc(CN4CCCCC4)cc3)c2)cc1`: the melting point lay in the range of 87 to 88 °C.

`Cc1cc(O)ccc1C(=O)O` yielded a melting point of 160 to 161 °C.

Compound `COc1cc(Nc2cc(C(F)(F)F)nc(-c3cc(Cl)nc(Cl)c3)n2)cc(OC)c1` displayed a melting point of 109 to 110 °C.

With `CCOC(=O)CCNC(=O)n1nc(Oc2c(Cl)cc(C(F)(F)F)cc2Cl)cc1C`, the melting point fell in the range of 73 to 74 °C.

On to `CC(C)(CSc1ccc(Cl)cc1)C(=O)C(Oc1ccc(Cl)cc1)n1cncn1` (stereo not given), for which the melting point was found to be 115 °C.

In turn, `Nc1cc2c(cc1N)OCOC2` had a melting point of 156 to 158 °C.

As to `C[C@H]1[C@@H](CO)CCN1c1ccc(C#N)c2sccc12`, the melting point fell in the range of 109 to 111 °C.

The compound `CCC(CC)COC(=O)c1ccc(N)cc1` came in with a melting point of 52 to 53 °C.

`O=C(NCCc1ccc(O)c(O)c1)c1cccnc1` yielded a melting point of 156 to 162 °C.

Compound `CC(C)(Cc1ccc(Cl)cc1)C(C#N)C(=O)O` (stereo not given) gave a melting point of 137 to 138 °C.

For `Cc1ccsc1C(=O)C[N+](=O)[O-]`, the melting point lay within 59 to 61 °C.

`CC[C@H](C)[C@@H](CO)NS(=O)(=O)c1ccc(Cl)c(N)c1` registered a melting point of 89 to 92 °C.

For `NCC1Cc2cc(-c3ccccc3)cc(-c3cccc(F)c3)c2O1` (stereo not given), the melting point is > 250 °C.

`O=C(CSCc1c[nH]c2ccccc12)N1CC=C(c2cccc(F)c2)CC1`: the melting point is 130 to 131 °C.

`CCNCC1Cc2cc(F)cc(-c3c(Cl)cccc3Cl)c2O1` (stereo not given) had a melting point of 138 °C.

On to `CCCOc1ccc(S(N)(=O)=O)cc1C1=NC(=O)C2=NC=NC2=N1`, for which the melting point lay in the range of 276 to 278 °C.

Turning to `O=C(Nc1cccc(-c2ncno2)c1)Oc1ccc([N+](=O)[O-])cc1`, the melting point fell in the range of 195 to 197 °C.

In turn, `O=C1Cc2cccc(Oc3ccccc3)c2N1` had a melting point of 135 to 146 °C.

In turn, `CCCCCCCCCCOc1ccc(NC(=O)c2ccc(OC(C)=O)cc2)cc1OCCCCCCCCCC` came in with a melting point of 117 °C.

For the compound `Cc1cnc(Br)c(F)c1`, the melting point fell in the range of 32 to 33 °C.

In turn, `O=C(O)Cc1cccc2c(-c3ccc(Br)cc3)onc12` registered a melting point of 190 to 192 °C.

Consider `COc1cc2c(cc1OC)CCC(/C=C/C(=N)NO)=C2`, for which the melting point is 199 to 203 °C.

`NS(=O)(=O)c1ccc(-c2[nH]c3ccc(Cl)cc3c2-c2cccc(Cl)c2)cc1` registered a melting point of 249 to 251 °C.

In turn, `CC(C)(c1ccc(O)cc1)c1ccc(O)c(Cl)c1` showed a melting point of 106 to 107 °C.

On to `O=c1[nH]c2cc(-n3cccc3)c([N+](=O)[O-])cc2n(C2CCCCC2)c1=O`, for which the melting point was 197 °C.

In turn, `CCc1cc(O)cc2cc(-c3ccc(O)cc3)oc12` registered a melting point of 218 to 220 °C.

For the compound `O=C1c2ccccc2C(=O)N1COc1ccc([N+](=O)[O-])cc1`, the melting point lay within 145 to 148 °C.

Turning to `CCCC(C)(O)C(=O)Nc1cc(Br)[nH]c(=O)c1` (stereo not given), the melting point was found to be 188 °C.

Take `CCCCCCCCCCCCCCOc1ccc(C(=O)OC)cc1OC`: the melting point lay within 50 to 51 °C.

Consider `CC1Nc2ccccc2N2CCc3cc(Cl)cc1c32` (stereo not given), for which the melting point was 167 to 170 °C.

On to `Cc1cccc(NC(=O)NCC(=O)N(c2ccccc2)C(C(=O)OC(C)(C)C)c2ccc(N)cc2)c1` (racemic), for which the melting point worked out at 108 °C.

Regarding `CCOC(=O)c1ccc(OCc2nc(-c3ccco3)oc2C)c(OC)c1`, the melting point is 133 to 134 °C.

`CC(=NC#N)NC1=CC(C)(C)Oc2ccc(C#N)cc21` showed a melting point of 205 to 206 °C.

On to `O=C(O)Cc1ccc(CC2CCCCC2=O)cc1` (stereo not given), for which the melting point lay in the range of 71.5 to 72.5 °C.

For `Cc1cc(C)nc(OC(C)C(=O)NS(=O)(=O)c2ccccc2)n1` (stereo not given), the melting point came to 188 °C.

The compound `CCCCCCCCCCCCCC=CCC(O)C(=O)O` (stereo not given) yielded a melting point of 78 to 79.5 °C.

The term melting point denotes the temperature, or range, at which the solid turns liquid.

The record behind these values is a melting point compilation (Tetko et al.; mined from patent text by program, amines drawn as free bases though some values may be those of a salt).
